This note sets out measurements from patent US6369246B2, “Synthesis and pharmaceuticals of novel 9-substituted-1, 5-dichloroanthracene analogs” (Dr. Keith Chan, GloboAsia, LLC, priority 1999, dated 2002).

For test [1], the system named is Human oral epidermoid carcinoma cells (KB cell line). The test can be described thus: Growth inhibition assay, KB cell line. It is filed as cell-based. Particulars: 48 hours, cell counting, read-out: IC50 KB (concentration required to inhibit cell growth by 50% relative to controls). As to the method: (§1) Growth inhibition was measured in three human carcinoma cell lines (GBK KB and CHO) using a previously described […] assay. Hwang, J.-M. et al., Chin. Med. J (Taipei), 51, 166-175 (1993). Human oral epidermoid carcinoma cells (KB cell line), human cervical carcinoma cells of ME 180 (GBM8401) and Chinese hamster ovary (CHO) cells grown in plateau phase were used in all experiments. Each cell line was further divided into control and experimental groups, respectively.
(§2) Stock solutions of the test compounds were prepared in DMSO and diluted with DMEM to give a final concentration of DMSO of 0.2%. Controls were performed with DMSO or with medium alone. The medium was removed and each well was rinsed with 100 μL PBS 48 hours after addition of the test compound to the culture. The cells were then incubated with sterile 0.5% trypsin, 0.2% EDTA in PBS for 20 minutes at 37° C. The detached cells from each well were suspended in DMEM and dispersed into single cells by gentle pipeting through an Eppendorf pipette and cell growth was determined directly by counting the cells in a Neubauer counting chamber using phase contrast microscopy. Inhibition was calculated by comparison of the mean values of the test compound (N=3) with the control (N=6−8) activity: (1-test compound/control) ×100. Inhibition was statistically significant compared to that of control (Student's t Test; P=0.05). IC50 values (concentration required to inhibit cell growth by 50%) were determined for each agent which was derived by interpolation of a log inhibitor concentration versus response plot using four or more different concentrations of the compound spanning the 50% inhibition point.

Test [2] relates to iron-induced lipid peroxidation in rat brain homogenates. The test is described as follows: Lipid peroxidation assay (TBA). Conditions: ferrous ion 200 μM, 37° C. 30 min; for % Inhibition (1 μM), relative percentage of inhibition: 1 μM compound; for % Inhibition (10 μM), relative percentage of inhibition: 10 μM compound. It is filed as biochemical, Wistar rats. As to the method:
Rat brain homogenate was prepared from the brains of freshly killed Wistar rats and its peroxidation. In the presence of iron ions was measured by the thiobarbituric acid (TBA). Teng, C. M. et al., Eur. J. Pharmacol., 303, 129-139 (1996). Tetramethoxypropane was used as a standard, and the results were expressed as nanomoles of malondialdehyde equivalents per milligram of protein of rat brain homogenates. In brief, whole brain tissue, excluding the cerebellum, was washed and homogenized in 10 volumes of ice-cold Krebs buffer (10 mM N-2 hydroxyethyl-piperazine-N′-2-ethanesulfonic acid (Hepes), 10 mM glucose, 140 mM NaCl, 3.6 mM KCl, 1.5 mM CaCl2, 1.4 mM KH2PO4, 0.7 mM MgSO4, pH 7.4) using a glass Dounce homogenizer. […] The reaction mixture with test compounds or vehicle was incubated for 10 min, then stimulated by addition of ferrous ion (200 μM freshly prepared), and maintained at 37° C. for 30 min. The reactions were terminated by adding […] of ice-cold trichloroacetic acid solution (4% (w/v) in 0.3 N HCl) and […], of thiobarbituric acid-reactive substance reagent (0.5% (w/v) thiobarbituric acid in 50% (v/v) acetic acid). After boiling for 15 min, the samples were cooled and extracted with n-butanol. The extent of lipid peroxidation was estimated as thiobarbituric acid-reactive substances and was read at 532 nm in a spectrophotometer (Shimadzu UV-160).

In test [3] the test system is Chinese hamster ovary (CHO) cells. The test is described as follows: Growth inhibition assay, CHO cells. It is filed as cell-based. Conditions: 48 hours, cell counting, read-out: IC50 CHO (concentration required to inhibit cell growth by 50% relative to controls). Here is the method:
as §1, §2

Test [4] deals with GBM cell line (human cervical carcinoma cells of ME 180 (GBM8401)). The test can be described thus: Growth inhibition assay, GBM cell line. It is filed as cell-based. Conditions: cell counting, read-out: IC50 GBM (concentration required to inhibit cell growth by 50% relative to controls). Here is the method: as §1, §2

Like-named read-outs stand apart in the source and are kept apart here.

For the compound `O=C(CCCBr)Oc1c2cccc(Cl)c2cc2cccc(Cl)c12` [Compound 3i], the IC50 in test [1] was found to be 457 µM; in test [3], 110 µM; in test [4] (48 hours), 205 µM. The “% Inhibition (1 μM), relative percentage of inhibition” value in test [2] was determined as 38.1%. Besides, in test [2], the “% Inhibition (10 μM), relative percentage of inhibition” value is 100%.
For the compound `O=C(CCl)Oc1c2cccc(Cl)c2cc2cccc(Cl)c12` [Compound 3c], the IC50 was found to be 528 µM in test [1], 1.2 µM in test [3] and 106 µM in test [4] (48 hours). Further, in test [2], the “% Inhibition (1 μM), relative percentage of inhibition” value is listed as 100%. Further, the “% Inhibition (10 μM), relative percentage of inhibition” value in test [2] was 100%.
Consider `CN(Cc1cnc2nc(N)nc(N)c2n1)c1ccc(C(=O)N[C@@H](CCC(=O)O)C(=O)O)cc1` [Methotrexate, reference compound], for which the IC50 in test [1] (Homo sapiens) was 47200 µM; in test [3] (Cricetulus griseus), 9140 µM; in test [4] (Homo sapiens, ME-180, 48 hours), 9290 µM.
Take `CCC(=O)Oc1c2cccc(Cl)c2cc2cccc(Cl)c12` [Compound 3d]: the IC50 in test [1] stood at 471 µM; in test [3], 1160 µM; in test [4] (48 hours) it was 17.2 µM. The “% Inhibition (1 μM), relative percentage of inhibition” value in test [2] worked out at 100%. The “% Inhibition (10 μM), relative percentage of inhibition” value in test [2] was 100%.
As for `O=C(Oc1c2cccc(Cl)c2cc2cccc(Cl)c12)c1ccccc1` [Compound 3L, 1,5-Dichloro-9-benzoyloxy-anthracene], the IC50 in test [1] (Homo sapiens) was found to be 813 µM; in test [3] (Cricetulus griseus), 1440 µM; in test [4] (Homo sapiens, ME-180, 48 hours) it was 226 µM. Also, the “% Inhibition (1 μM), relative percentage of inhibition” value in test [2] came out at 4.6%. Moreover, in test [2], the “% Inhibition (10 μM), relative percentage of inhibition” value was found to be 14.0%.
For `O=C(CCc1ccccc1)Oc1c2cccc(Cl)c2cc2cccc(Cl)c12` [Compound 3w], the IC50 was 936 µM in test [1], 1160 µM in test [3] and 1730 µM in test [4] (48 hours). Further, the “% Inhibition (1 μM), relative percentage of inhibition” value in test [2] is reported as 29.3%. In addition, in test [2], the “% Inhibition (10 μM), relative percentage of inhibition” value is reported as 36.6%.
For `Cc1c(C)c2c(c(C)c1O)CC[C@@](C)(CCC[C@H](C)CCC[C@H](C)CCCC(C)C)O2` [(+)-a-Tocopherol, reference compound], in test [2], the “% Inhibition (1 μM), relative percentage of inhibition” value is recorded as 61.6% and the “% Inhibition (10 μM), relative percentage of inhibition” value is listed as 100%.
As to `CC(=O)Oc1c2cccc(Cl)c2cc2cccc(Cl)c12` [Compound 3a, 1,5-Dichloro-9-acetyloxy-anthracene], the IC50 in test [1] (Homo sapiens) amounted to 473 µM; in test [3] (Cricetulus griseus) it was 114 µM; in test [4] (Homo sapiens, ME-180, 48 hours), 48.1 µM. In addition, the “% Inhibition (1 μM), relative percentage of inhibition” value in test [2] stood at 25.5%. Further, the “% Inhibition (10 μM), relative percentage of inhibition” value in test [2] was determined as 34.4%.
With `CCCCCC(=O)Oc1c2cccc(Cl)c2cc2cccc(Cl)c12` [Compound 3k], the IC50 in test [1] amounted to 317 µM; in test [3], 55.1 µM; in test [4] (48 hours), 1.2 µM. For the same compound, the “% Inhibition (1 μM), relative percentage of inhibition” value in test [2] was found to be 12.2%. For the same compound, in test [2], the “% Inhibition (10 μM), relative percentage of inhibition” value came to 17.2%.
As for `O=C(Oc1c2cccc(Cl)c2cc2cccc(Cl)c12)c1ccc(Cl)cc1Cl` [Compound 3u], the values for the IC50 in test [1], in test [3] and in test [4] (48 hours) were 108 µM, 1180 µM and 87.7 µM, respectively. The “% Inhibition (1 μM), relative percentage of inhibition” value in test [2] came out at 1.7%. The “% Inhibition (10 μM), relative percentage of inhibition” value in test [2] is listed as 16.0%.
For the compound `COc1cccc2c1C(=O)c1c(O)c3c(c(O)c1C2=O)C[C@@](O)(C(=O)CO)C[C@@H]3O[C@H]1C[C@H](N)[C@H](O)[C@H](C)O1` [Doxorubicin, reference compound], the IC50 in test [1] (Homo sapiens) came out at 420 µM; in test [3] (Cricetulus griseus), 499 µM; in test [4] (Homo sapiens, ME-180, 48 hours), 599 µM.
Regarding `COc1cc(Cl)ccc1C(=O)Oc1c2cccc(Cl)c2cc2cccc(Cl)c12` [Compound 3t], the IC50 is 818 µM in test [1], 114 µM in test [3] and 10.8 µM in test [4] (48 hours). In addition, the “% Inhibition (1 μM), relative percentage of inhibition” value in test [2] was 0%. Moreover, the “% Inhibition (10 μM), relative percentage of inhibition” value in test [2] is listed as 10.3%.
Consider `CO[C@@]12[C@H](COC(N)=O)C3=C(C(=O)C(C)=C(N)C3=O)N1C[C@@H]1N[C@@H]12` [Mitomycin-C, reference compound], for which the results for the IC50 in test [3] and in test [4] (48 hours) were 2120 µM and 1900 µM, respectively.
With `O=C(Oc1c2cccc(Cl)c2cc2cccc(Cl)c12)c1cccc(Cl)c1` [Compound 3p], the IC50 in test [1] amounted to 1050 µM; in test [4] (48 hours), 11.7 µM. Also, the “% Inhibition (1 μM), relative percentage of inhibition” value in test [2] stood at 8.6%. Moreover, the “% Inhibition (10 μM), relative percentage of inhibition” value in test [2] is reported as 30.6%.
With `O=C(CBr)Oc1c2cccc(Cl)c2cc2cccc(Cl)c12` [Compound 3b], the IC50 in test [1] is 136 µM; in test [3] it was 1010 µM; in test [4] (48 hours) it was 19.2 µM. Also, the “% Inhibition (1 μM), relative percentage of inhibition” value in test [2] was determined as 100%. Besides, the “% Inhibition (10 μM), relative percentage of inhibition” value in test [2] was found to be 100%.
Consider `CC(C)C(=O)Oc1c2cccc(Cl)c2cc2cccc(Cl)c12` [Compound 3e], for which the figures for the IC50 in test [1], in test [3] and in test [4] (48 hours) were 431 µM, 1310 µM and 196 µM, respectively. The “% Inhibition (1 μM), relative percentage of inhibition” value in test [2] was determined as 1.5%. Besides, the “% Inhibition (10 μM), relative percentage of inhibition” value in test [2] is on record as 28.6%.
For `O=C(Oc1c2cccc(Cl)c2cc2cccc(Cl)c12)C(Cl)Cl` [Compound 3g] the same measures were 528 µM, 1280 µM, 1.4 µM, 61.7% and 100%.
As to `CC(Cl)C(=O)Oc1c2cccc(Cl)c2cc2cccc(Cl)c12` (stereo not shown) [Compound 3f], the IC50 was 374 µM in test [1], 955 µM in test [3] and 126 µM in test [4] (48 hours). Moreover, in test [2], the “% Inhibition (1 μM), relative percentage of inhibition” value is 9.8%. Further, the “% Inhibition (10 μM), relative percentage of inhibition” value in test [2] is reported as 60.6%.
With `O=C(Cc1ccccc1)Oc1c2cccc(Cl)c2cc2cccc(Cl)c12` [Compound 3v], the IC50 came out at 12.6 µM in test [1], 1190 µM in test [3] and 110 µM in test [4] (48 hours). In addition, the “% Inhibition (1 μM), relative percentage of inhibition” value in test [2] was 13.7%. In test [2], the “% Inhibition (10 μM), relative percentage of inhibition” value amounted to 32.8%.
Consider `Cc1ccccc1C(=O)Oc1c2cccc(Cl)c2cc2cccc(Cl)c12` [Compound 3m], for which the IC50 in test [1] came to 1140 µM; in test [3], 1510 µM; in test [4] (48 hours), 108 µM. Also, the “% Inhibition (1 μM), relative percentage of inhibition” value in test [2] came to 0%. The “% Inhibition (10 μM), relative percentage of inhibition” value in test [2] worked out at 23.0%.
With `O=C(CCCCl)Oc1c2cccc(Cl)c2cc2cccc(Cl)c12` [Compound 3j], the IC50 in test [1] was found to be 11 µM; in test [3], 1170 µM; in test [4] (48 hours) it was 1.1 µM. Further, the “% Inhibition (1 μM), relative percentage of inhibition” value in test [2] is reported as 10.0%. Further, the “% Inhibition (10 μM), relative percentage of inhibition” value in test [2] came to 29.0%.
As to `Cc1cccc(C(=O)Oc2c3cccc(Cl)c3cc3cccc(Cl)c23)c1` [Compound 3n, 1,5-Dichloro-9-(m-toluyloxy)-anthracene], the IC50 turned out to be 111 µM in test [1], 1200 µM in test [3] and 398 µM in test [4] (48 hours). The “% Inhibition (1 μM), relative percentage of inhibition” value in test [2] worked out at 10.9%. The “% Inhibition (10 μM), relative percentage of inhibition” value in test [2] amounted to 22.4%.
In the case of “1,5-Dichloro-9-(p-toluoxy)-anthracene [Compound 3o]”, the IC50 in test [1] was 865 µM. In addition, in test [2], the “% Inhibition (1 μM), relative percentage of inhibition” value is 2.9% and the “% Inhibition (10 μM), relative percentage of inhibition” value worked out at 25.6%. The IC50 in test [4] (48 hours) stood at 11.2 µM.
